For one test, the system named is Plutella xylostella. In words: Control effect on Plutella xylostella (cabbage, greenhouse spray test). Type of test: in vivo. Particulars: spray 800 L/ha, g a.i./ha: flubendiamide 60, dichlorvos 400, profenofos 320; for Number of surviving larvae 2 days after treatment / Number of surviving larvae 6 days after treatment: 3rd-instar larvae on Brassica oleracea var. capitata, three plants per plot; for Control effect (%) 2 days after treatment / Control effect (%) 6 days after treatment: formula 1.

The next test has as its system Chilo suppressalis. Briefly: Control effect on Chilo suppressalis (potted rice spray test). Format: in vivo. To be noted: spray 400 L/ha, g a.i./ha: flubendiamide 30, dichlorvos 393, profenofos 500; for Percentage of control (%): control effect by formula 2; for Percentage of control (%) / Percentage of damaged stems (%): 29 days after treatment; for Number of stems at 29 days after treatment, Damaged stems / Number of stems at 29 days after treatment, Normal stems: rice (Kinmaze) in pots, 60 larvae per pot. How it is done:
Rice plants (variety: Kinmaze) were planted in 2-L pots and grown to a height of about 80 cm (about 82 days after transplantation, 18 to 25 sheaths). The depth of paddy water in each pot was adjusted to 4 cm and then spray treatment to the rice plants was conducted with an agrochemical solution diluted to a predetermined concentration in an amount equivalent to 400 L/ha. After the spray-treated plants were air-dried, each pot was covered with a vinyl chloride cylindrical cover 30 cm in height. At 1 day before the treatment and at 5 and 12 days after the treatment, 20 larvae of the test insect pest Chilo suppressalis were released into each of the covered pots (60 larvae in total per pot). At 29 days after the treatment, in each pot, the number of damaged stems of the rice plants was counted, the percentage of damaged stems was calculated, and from this percentage, the control effect was calculated according to formula 2. In addition, the expected value was calculated according to Colby's equation in the same manner as in Test Example 1.
Control effect (%)=100−(the percentage of damaged stems in a treatment plot/the percentage of damaged stems in a non-treatment plot)×100 <Formula 2>

For `COP(=O)(OC)OC=C(Cl)Cl` [Dichlorvos, 2,2-dichlorovinyl dimethyl phosphate], in the test on Plutella xylostella, the “Number of surviving larvae 2 days after treatment” value (“Number of surviving larvae 2 days” below) is 188, the “Number of surviving larvae 6 days after treatment” value (“Number of surviving larvae 6 days” for short) was 212, the “Control effect (%) 2 days after treatment” value (from here on “Control effect (%) 2 days”) is 16% and the “Control effect (%) 6 days after treatment” value (from here on “Control effect (%) 6 days”) amounted to 0%. Further, in the test on Chilo suppressalis, the “Percentage of control (%)” value was 7.5%; the “Number of stems at 29 days after treatment, Damaged stems” value (from here on “Number of stems … Damaged stems”) turned out to be 38; the “Number of stems at 29 days after treatment, Normal stems” value (“Number of stems … Normal stems” below) is recorded as 7; the “Percentage of damaged stems (%)” value worked out at 84.4%.
Regarding `CCCSP(=O)(OCC)Oc1ccc(Br)cc1Cl` (stereo not drawn) [Profenofos, O-4-bromo-2-chlorophenyl O-ethyl S-propyl phosphorothioate], in the test with Plutella xylostella, the “Number of surviving larvae 2 days” value is 121, the “Number of surviving larvae 6 days” value stood at 44, the “Control effect (%) 2 days” value is reported as 48% and the “Control effect (%) 6 days” value is 80%. Also, in the test on Chilo suppressalis, the “Percentage of control (%)” value is reported as 27.7%; the “Number of stems … Damaged stems” value was 35; the “Number of stems … Normal stems” value worked out at 18; the “Percentage of damaged stems (%)” value turned out to be 66.0%.
Regarding `Cc1cc(C(F)(C(F)(F)F)C(F)(F)F)ccc1NC(=O)c1cccc(I)c1C(=O)NC(C)(C)CS(C)(=O)=O` [Flubendiamide, 3-iodo-W-(2-mesyl-1,1-dimethylethyl)-N-{4-[1,2,2,2-tetrafluoro-1-(trifluoromethyl)ethyl]-o-tolyl}phthalamide], in the test on Plutella xylostella, the “Number of surviving larvae 2 days” value is reported as 307, the “Number of surviving larvae 6 days” value is 56, the “Control effect (%) 2 days” value is recorded as 39% and the “Control effect (%) 6 days” value was 88%. In the test on Chilo suppressalis, the “Percentage of control (%)” value was 54.0%; the “Number of stems … Damaged stems” value came to 21; the “Number of stems … Normal stems” value was found to be 29; the “Percentage of damaged stems (%)” value stood at 42.0%.

Values taken from US20140256687A1, “Agricultural and Horticultural Insecticide Composition and Method for Using the Same” (priority 2011, published 2014).
